# Experimental data: patent US6281354A, “Analogs of duocarmycin and cc-1065” (The Scripps Research Institute, priority 1999, dated 2001)
# Where two headings read alike, the source gives them in different places.
# Key:
# [1] = In vitro cytotoxic activity; details: for cytotoxic potency of the two enantiomers compared: natural versus unnatural enantiomer; for cytotoxic activity of seco precursor compared with cyclopropane agent: versus 17-20, 23, 30 and 31, respectively
# [2] = test system: duplex DNA (w794, w836, c988, c820, c1346); assay type: biochemical, SV40; details: for sequence preference at the alkylation site: consensus alkylation sequence; for concentration at which DNA is alkylated / more efficient DNA alkylation than (+)-N--BOC-DSA: natural enantiomers
# [3] = Chemical/aqueous solvolysis reactivity followed by UV; assay type: physicochemical; details: for solvolysis rate constant κ, pH 3: pH 3, 50% CH3 OH-buffer
# Description: The solvolysis reactivities of N--BOC-CNA (78) and CNA (79) were followed spectrophotometrically by UV at both pH 3 (50% CH3 OH-buffer, buffer=4:1:20 v/v/v 0.1 M citric acid, 0.2 M Na2 HPO4, H2 O) and pH 7 (50% CH3 OH--H2 O). […] Particularly informative are comparisons of the benzo series of agents that differ only in the C-ring size (i.e., 76-79). Solvolysis reactivity smoothly increases through the series CBI<CBQ<CNA with both the N--BOC derivatives and the free NH derivatives.
# Aqueous Solvolysis of N--BOC-CNA (78) and CNA (79). Samples of 78 (150 μg) and 79 (150 [g) were dissolved in CH3 OH (1.5 mL) and the resulting solutions were mixed with aqueous buffer (pH 3, 1.5 mL, 4:1:20 (v:v:v) 0.1 M citric acid, 0.2 M Na2 HPO4, and deionized H2 O respectively). Similarly, a solution of 78 (150 μg) in CH3 OH (1.5 mL) was mixed with deionized H2 O (pH 7, 1.5 mL). The UV spectra of the solutions were measured immediately after mixing with the appropriate aqueous solution. The blank and the solvolysis reaction solutions were stoppered, protected from light, and allowed to stand at 25° C. The total reaction times reflect those required to observe no further change in absorbance. For the solvolysis of 78 at pH 3, the UV spectrum was taken every 30 s for 10 min and then every 3 min for the next 40 min. The decrease of the absorbance at 319 nm was monitored. […] For the solvolysis of 78 at pH 7, the UV spectrum was monitored every 5 min for 19 h. […] For the solvolysis of 79 at pH 3, the UV spectrum was monitored every 2 min for the first 110 min and then every 10 min for the next 4 h. The decrease in the absorbance at 345 nm was recorded.
# [4] = 50% ch3oh-buffer, pH 3, pH 3, 50% CH3 OH-buffer, 25° C., read-out: solvolysis t1/2, pH 3 (h) (converted)
# [5] = 50% ch3oh-buffer, pH 3, pH 3, 50% CH3 OH-buffer, 25° C., read-out: solvolysis t1/2, pH 3 (min)
structure (smiles),measurement,setting,value
"CC(C)(C)OC(=O)N1CCCC2CC23C1=CC(=O)c1ccccc13 (single isomer, unassigned; (+)) [(+)-78]",cytotoxic potency of the two enantiomers compared,[1],more potent activity
COC(=O)c1cc2c([nH]1)C(=O)C=C1N(C(=O)OC(C)(C)C)C[C@H]3C[C@]123 [(+)-N--BOC-DSA],AT-rich adenine N3 alkylation selectivity (size of site),[2],2 base-pair
"O=C1C=C2NCC3CC23c2ccccc21 (stereo not shown) [CBI, reference compound]","solvolysis reactivity difference, CBI versus CBQ",[3],10 -fold
same,solvolysis reactivity/stability in words or rank order,[3],CBI<CBQ<CNA
"O=C1C=C2NCCC3CC23c2ccccc21 (stereo not shown) [CBQ, reference compound]","solvolysis reactivity difference, CBI versus CBQ",[3],10 -fold
same,solvolysis reactivity/stability in words or rank order,[3],CBI<CBQ<CNA
COC(=O)c1cc2c([nH]1)C(=O)C=C1N(C(=O)OC(C)(C)C)CC3CC123 (stereo not shown) [N--BOC-DSA],AT-rich adenine N3 alkylation selectivity (size of site),[2],2 base-pair
same,reaction time required for substantial or complete DNA alkylation,[2]; 25-37° C.,2 to 7 days
same,sequence preference at the alkylation site,[2],5'-AA>5'-TA
"COC(=O)c1cc2cc(NC(=O)c3cc4c([nH]3)C(=O)C=C3N(C(=O)OC(C)(C)C)CC5CC345)ccc2[nH]1 (stereo not shown) [compound 17, N-(Methyl 1H-Indol-5-yl-2-carboxylate)-2-((tert-butyloxy)carbonyl)-1,2,8,8a-tetrahydrocyclopropa[c]pyrrolo[3,2-e]indol-4-one-7-carboxamide]",AT-rich adenine N3 alkylation selectivity (size of site),[2],3.5 base-pair
same,cytotoxic potency compared with simple derivatives N--BOC-DSA (4) and N--Ac-DSA,[1]; natural enantiomers,essentially indistinguishable
"COC(=O)c1cc2cc(NC(=O)c3cc4cc(NC(=O)c5cc6c([nH]5)C(=O)C=C5N(C(=O)OC(C)(C)C)CC7CC567)ccc4[nH]3)ccc2[nH]1 (stereo not shown) [compound 18, N-{2-[N-(2-Methoxycarbonyl-1H-indol-5-yl)]carbamoyl-1H-indol-5-yl}-2-(tert-butyloxycarbonyl)-1,2,8,8a-tetrahydrocyclopropa[c]pyrrolo[3,2-e]indol-4-one-6-carboxamide]",AT-rich adenine N3 alkylation selectivity (size of site),[2],5 base-pair
same,comparison of DNA alkylation selectivity,[2],no differences in their DNA alkylation selectivity
same,less efficient at alkylating DNA than DSA-indole2,[2],ca. 100 ×
same,slower DNA alkylation than DSA-indole2,[2],ca. 1000 ×
same,unnatural enantiomer less effective at DNA alkylation than natural enantiomer,[2],approximately 10 ×
same,"cytotoxic potency, effect of terminal N^2 substituent (18, 23, 24 compared)",[1]; natural and unnatural enantiomers,essentially indistinguishable
same,cytotoxic potency compared with simple derivatives N--BOC-DSA (4) and N--Ac-DSA,[1]; natural enantiomers,essentially indistinguishable
"COC(=O)c1cc2c3c(ccc2[nH]1)N(C(=O)c1cc2c([nH]1)C(=O)C=C1N(C(=O)OC(C)(C)C)CC4CC124)CC3 (stereo not shown) [compound 19, 6-[(Methyl 1,2-Dihydro-3H-pyrrolo[3,2-e]indole-3-yl)carbonyl-7-carboxylate]-2-((tert-butyloxy)carbonyl)-1,2,8,8a-tetrahydrocyclopropa[c]-pyrrolo[3,2-e]indol-4-one]",AT-rich adenine N3 alkylation selectivity (size of site),[2],3.5 base-pair
same,more potent cytotoxicity than simple derivatives N--BOC-DSA (4) and N--Ac-DSA,[1]; natural enantiomers,less than 10 ×
"COC(=O)c1cc2cc(NC(=O)c3cc4cc(NC(=O)c5cc6c7c(cc(O)c6[nH]5)N(C(C)=O)CC7CCl)ccc4[nH]3)ccc2[nH]1 (stereo not shown) [compound 22, N-{2-[N-(2-Methoxycarbonyl-1H-indol-5-yl)]carbamoyl-1H-indol-5-yl}-3-acetyl-1-(chloromethyl)-5-hydroxy-1,2-dihydro-3H-pyrrolo[3,2-e]indole-7-carboxamide]",cytotoxic activity of seco precursor compared with cyclopropane agent,[1],not distinguishable
"COC(=O)c1cc2c3c(ccc2[nH]1)N(C(=O)c1cc2c4c(cc(O)c2[nH]1)N(C(=O)c1cc2c5c(ccc2[nH]1)N(C(N)=O)CC5)CC4CCl)CC3 (stereo not shown) [compound 28, 7-[(Methyl 1,2-Dihydro-(3H-pyrrolo[3,2-e]indole-3-yl)carbonyl-7-carboxy-late)-3-(3-carbamoyl-1,2-dihydro-3H-pyrrolo[3,2-e]indol-7-yl)carbonyl]-1-(chloromethyl)-5-hydroxy-1,2-dihydro-3H-pyrrolo[3,2-e]indole]",cytotoxic activity of seco precursor compared with cyclopropane agent,[1],not distinguishable
"COC(=O)c1cc2c3c(ccc2[nH]1)N(C(=O)c1cc2c4c(cc(O)c2[nH]1)N(C(=O)c1cc2cc(OC)c(OC)c(OC)c2[nH]1)CC4CCl)CC3 (stereo not shown) [compound 29, 7-[(Methyl 1,2-Dihydro-3H-pyrrolo[3,2e]indole-3-yl)carbonyl-7-carboxylate]-3-[(5,6,7-trimethoxyindol-2-yl)carbonyl]-1-(chloromethyl)-5-hydroxy-1,2-dihydro-3H-pyrrolo[3,2-e]indole]",cytotoxic activity of seco precursor compared with cyclopropane agent,[1],not distinguishable
COC(=O)c1cc2c3c(ccc2[nH]1)N(C(=O)c1cc2c([nH]1)C(=O)C=C1N(C(=O)c4cc5cc(OC)c(OC)c(OC)c5[nH]4)CC4CC124)CC3 (stereo not shown) [compound 31],cytotoxic potency compared with typical agents,[1],essentially equipotent with the typical agents
"COC(=O)c1cc2c([nH]1)C(=O)C=C1N(C(C)=O)CC3CC123 (stereo not shown) [compound 40, Methyl 2-Acetyl-1,2,8,8a-tetrahydrocyclopropa[c]pyrrolo[3,2-e]indol-4-one-6-carboxylate]",sequence preference at the alkylation site,[2],5'-AA>5'-TA
same,concentration at which DNA is alkylated,[2],10^-3 M
same,more efficient DNA alkylation than (+)-N--BOC-DSA,[2],approximately 10 ×
same,unnatural enantiomer less effective at DNA alkylation than natural enantiomer,[2],approximately 10 ×
"COC(=O)c1cc2c([nH]1)C(=O)C=C1N(C(=O)OC)CC3CC123 (stereo not shown) [compound 41, Methyl 2-(Methoxycarbonyl)-1,2,8,8a-tetrahydrocyclopropa[c]pyrrolo[3,2-e]indol-4-one-6-carboxylate]",sequence preference at the alkylation site,[2],5'-AA>5'-TA
same,concentration at which DNA is alkylated,[2],10^-3 M
same,more efficient DNA alkylation than (+)-N--BOC-DSA,[2],approximately 10 ×
same,unnatural enantiomer less effective at DNA alkylation than natural enantiomer,[2],approximately 10 ×
COC(=O)c1cc2c([nH]1)C(=O)C=C1N(C(=O)c3cc4c5c(ccc4[nH]3)N(C(=O)c3cc4c6c(ccc4[nH]3)N(C(N)=O)CC6)CC5)CC3CC123 (stereo not shown) [compound 61],cytotoxic potency of the two enantiomers compared,[1],nearly equipotent
CC(C)(C)OC(=O)N1CCCC2CC23C1=CC(=O)c1ccccc13 (stereo not shown) [compound 78],more reactive than N--BOC-DSA (solvolysis),[3],10^3 -10^4 ×
same,more reactive than the corresponding CBI derivative (solvolysis),[3],4750 ×
same,solvolysis reactivity/stability in words or rank order,[3],sufficiently reactive to undergo rapid solvolysis even at pH 7
same,half-life,[3]; [4],0.028 h
same,half-life,[3]; [5],0.0283 h
same,half-life,"[3]; 50% ch3oh-h2o, pH 7, pH 7, 50% CH3 OH--H2 O, 25° C., read-out: solvolysis t1/2, pH 7 (converted)",2.1 h
same,half-life,"[3]; 50% methanol-water, pH 7, pH 7, no added acid catalysis, read-out: solvolysis t1/2, pH 7 (converted)",2.1 h
same,solvolysis reactivity/stability in words or rank order,[3]; listed as N--BOC-CNA,between that of N--BOC-CBQ and the exceptionally reactive N--BOC-CI
same,"solvolysis rate constant κ, pH 3",[3]; 25° C.,6.90×10^-3 s^-1
same,"solvolysis rate constant κ, pH 7","[3]; pH 7, 50% CH3 OH--H2 O, 25° C.",9.16×10^-5 s^-1
same,"solvolysis t1/2, pH 7 (h)","[3]; pH 7, no added acid catalysis",2.1 h
"O=C1C=C2NCCCC3CC23c2ccccc21 (stereo not shown) [compound 79, 1,2,3,4,11,11a-Hexahydrocyclopropa[c]naphtho[2,1-b]azepin-6-one]",more reactive than the corresponding CBI derivative (solvolysis),[3],1500 ×
same,"reactivity difference, CNA versus CBQ",[3],over a hundred-fold difference in reactivity
same,solvolysis reactivity/stability in words or rank order,[3],sufficiently reactive to undergo rapid solvolysis even at pH 7
same,half-life,[3]; [4],0.62 h
same,half-life,[3]; [5],0.617 h
same,solvolysis reactivity/stability in words or rank order,[3]; listed as CNA,CBI<CBQ<CNA
same,solvolysis reactivity/stability in words or rank order,[3]; listed as CNA (79),considerably more stable than N--BOC-CNA (78)
same,"solvolysis rate constant κ, pH 3",[3]; 25° C.,3.10×10^-4 s^-1
"COC(=O)N1CCCC2CC23C1=CC(=O)c1ccccc13 (stereo not shown) [compound 97, N-(Methoxycarbonyl)-1,2,3,4,11,11a-hexahydrocyclopropa[c]naphtho[2,1-b]azepin-6-one]",more reactive than N--BOC-DSA (solvolysis),[3],10^3 -10^4 ×
same,half-life,"[3]; 50% methanol-water, pH 7, no added acid catalysis, read-out: solvolysis t1/2, pH 7 (converted)",2.1 h
"COc1cc2cc(C(=O)N3CCCC4CC45C3=CC(=O)c3ccccc35)[nH]c2c(OC)c1OC (stereo not shown) [compound 98, N-[(5,6,7-Trimethoxyindol-2-yl)carbonyl]-1,2,3,4,11,11a-hexahydrocyclopropa-[c]naphtho[2,1-b]azepin-6-one]","more potent cytotoxicity than N--BOC-CNA (78), natural enantiomer",[1]; natural enantiomer,5-10 ×
same,"difference in cytotoxic potency versus N--BOC-CNA, unnatural enantiomer",[1]; unnatural enantiomers,1-2 ×
COC(=O)c1cc2c([nH]1)C(=O)C=C1N(C(=O)OC(C)(C)C)C[C@@H]3C[C@@]123 [ent-(-)-N--BOC-DSA],AT-rich adenine N3 alkylation selectivity (size of site),[2],2 base-pair
"COC(=O)c1cc2c([nH]1)C(=O)C=C1N(C(=O)c3cc4cc(OC)c(OC)c(OC)c4[nH]3)C[C@@H]3C[C@@]123 [ent-(-)-duocarmycin SA, reference compound]",AT-rich adenine N3 alkylation selectivity (size of site),[2],3.5 base-pair
